In patent US12090132B2, “Tris DBA pharmaceutical composition and its use for treating autoimmune diseases” (National Defense Medical Center, priority 2019, dated 2024):
“Also recorded” adds a separate entry of the source.

Legend:
[1] = tested on: ASLN mouse (NZB/WF1); assay: T cell subsets in ASLN mouse model (NZB/WF1); assay type: in vivo; details: Week 5, FIG. 3C
Protocol: (§1) Improve mouse animal model of accelerated aggravated lupus nephritis8-week-old female mouse (NZB/WF1) model is used for experiment in this embodiment, the mice are randomly divided into two groups (treatment group Tris DBA, negative control group Katimin-1), 7 mice per group, the LPS (0.6 mg/kg) is injected into the abdominal cavity of mouse twice a week, the Tris DBA (30 mg/kg) or Katimin-1® is applied by intraperitoneal injection in one week after injection, the mice are sacrificed in Week 3 and Week 5 respectively.

[2] = tested on: ASLN mouse (NZB/WF1); assay: Renal pathology (PAM, IHC) and autoantibody in ASLN mouse model; assay type: in vivo; details: ASLN mouse kidney
[3] = tested on: MAPK (pERK, pJNK, pp38); assay: Western Blot of MAPK phosphorylation in J774A.1 cells; assay type: cell-based, mouse
[4] = tested on: NLRP3 inflammasome; assay: NLRP3 inflammasome activation in LPS/ATP-treated J774A.1 cells (ELISA, Western Blot); assay type: cell-based, mouse
Protocol: Each group was treated with 0, 0.1, 0.5 and 1 μM Tris DBA culture medium for 30 minutes, reacting with 1 μg/ml lipopolysaccharide (LPS) of NLRP3 inflammasome typical activator for 5.5 hours. Finally, it reacted with 5 mM ATP reagent for 30 minutes, the IL-1β and caspase-1 cytokines were tested by ELISA.
The protein expression was analyzed by Western Blot, the cells and Tris DBA were cultured for 1 hour, and cultured with two groups with LPS or without LPS respectively for 5.5 hours to test the expression level of cytokines (NLRP3, caspase-1, pro-caspase-1, pro-IL-1β, pro-IL-1β) in cells. This step refers to the data from prior literature (Chang Y P, et. al. 2015. Resveratrol inhibits NLRP3 inflammasome activation by preserving mitochondrial integrity and augmenting autophagy.

[5] = tested on: BMDM cells; assay: Mitochondrion ROS in mouse BMDM; assay type: cell-based; details: LPS 1 μg/mL 5.5 hours, ATP 30 minutes, FIGS. 6D-6E
Protocol: The generation of mitochondrion ROS in the mouse BMDM is tested by using mitosox principle. There are two experimental groups (treatment group Tris DBA, negative control group NAC), reacting with 1 μg/mL LPS and cells for 5.5 hours, treated with ATP for 30 minutes, treated with commercial reagent H2DCFDA for one hour, so as to evaluate the cellular infiltration fluorescence intensity.

[6] = tested on: ASLN mouse (NZB/WF1); assay: Renal pathology (PAM, IHC) and autoantibody in ASLN mouse model; assay type: in vivo
Protocol: as §1
When the mice are sacrificed in Week 3 and Week 5, the renal tissue is taken for analysis, the renal cortex tissue is stained by PAM to analyze the content of immunoglobulin G (IgG) and serum complement C3, and the content of F4/80+ macrophages and CD30+ T cells is analyzed by IHC, so as to detect specific antigen molecules in tissue slice and to perform positioning, qualitative and quantitative analyses.

[7] = tested on: CD4 T cells of OVA-TCR transgenic mouse; assay: Antigen-specific T cell proliferation ([3H]-thymidine) and IFN-γ/IL-4, OVA-TCR CD4 T cells cultured with BMDCs; assay type: cell-based; details: FIG. 3L
Protocol: The CD4 T cells of OVA-TCR transgenic mouse and T cell proliferation of antigenic specificity are used to analyze the manifestation of dendritic cell antigen. The OVA323-339 peptide reacts with LPS and LPS+Tris DBA groups for 16 hours respectively. The CD4 T cells abstracted from OVA-TCR transgenic mouse are cultured with BMDCs as per ratios of 1:0, 1:1, 1:2 and 1:4, the T cell proliferation is determined by radioactive [3H]-thymidine, and the processed cell supernatant is used for testing the IFN-γ and IL-4 expression levels in Th1 and Th2 cells according to the operational manual of commercial reagent kit.

[8] = tested on: NF-κB; assay: NF-κB activation in J774A.1 cells; assay type: cell-based, mouse; details: FIG. 1I
[9] = tested on: ASLN mouse (NZB/WF1); assay: ROS (superoxide anion) in urine, serum and renal tissue of ASLN mouse; assay type: in vivo; details: Week 3 and Week 5, versus Katimin-1 group
Protocol: as §1
The ASLN mouse urine, serum and renal tissue obtained in Embodiment 2.4 are used to test antioxidant activity. The ROS content is tested according to operational manual of commercial reagent kit, the fluorescence probe dihydroethidium (Dihydroethidium, DHE) reacts with mouse urine and serum. The experimental results are represented as RLU/15 min/ml; the renal tissue is represented as RLU/15 min/mg dry weight.

[10] = tested on: autophagy factors Atg5, LC3BI/II, p62; assay: Autophagy factor expression in J774A.1 cells (Western Blot); assay type: cell-based, mouse; details: concentration-dependent
[11] = tested on: ASLN mouse (NZB/WF1); assay: Urine protein and renal function in ASLN mouse model; assay type: in vivo; details: 30 mg/kg intraperitoneal
Protocol: as §1
The mouse urine is collected weekly, and the serum is collected when the mice are sacrificed in Week 3 and Week 5, the changes in three biochemical indexes, which are creatinine (Cr), BUN and albumin/creatinine ratio (ACR) in urine, are tested according to the operational manual of commercial reagent kit, so as to analyze the changes in renal function.

[12] = tested on: ASLN mouse kidney; assay: Protein expression in renal tissue of ASLN mouse; assay type: in vivo
Protocol: as §1
The renal tissue is thoroughly mixed with RIPA lysis, the expression levels of proteins Atg5, LC3B, p62, NLRP3, caspase-1, IL-1β, p47phox, NQO1, pERK, pJNK and pp38 are tested by gel electrophoresis (SDS-page).

O=C(/C=C/c1ccccc1)/C=C/c1ccccc1.O=C(/C=C/c1ccccc1)/C=C/c1ccccc1.O=C(/C=C/c1ccccc1)/C=C/c1ccccc1.[Pd].[Pd] [Tris DBA]
regulated T cells FoxP3+CD25+CD4+ [1]: will not inhibit; also recorded: significantly increase | content of CD3+T cells [2]: can obviously inhibit | pERK expression level ([3]; FIG. 1A): can inhibit | pJNK expression level ([3]; FIG. 1B): can inhibit | pp38 expression level ([3]; FIG. 1C): can inhibit | NLRP3 protein expression level ([4]; FIG. 1F): can inhibit | pro-IL-1β protein expression level ([4]; FIG. 1G): can inhibit | expression level of IL-1β ([4]; FIGS. 2J-2K): can inhibit | cytokines induced by LPS (IL-1β, caspase-1, pro-IL-1β) of cell supernatant ([4]; Western Blot, FIG. 2B): can inhibit | activation of NLRP3 inflammasome (IL-1β induced by LPS) ([4]; after treatment with ATP, FIG. 2A): inhibit | generation of mitochondria ROS [5]: can inhibit | content of immunoglobulin G (IgG) ([6]; ASLN mouse kidney): can obviously inhibit | content of serum complement C3 ([6]; ASLN mouse kidney): can obviously inhibit | content of F4/80+ macrophages ([6]; ASLN mouse kidney, IHC): can obviously inhibit | glomerular cell proliferation ([6]; ASLN mouse renal tissue, PAM stain, FIG. 4E): obviously inhibits | glomerular crescent structure proliferation ([6]; ASLN mouse renal tissue, PAM stain, FIG. 4F): obviously inhibits | neutrophilic infiltration ([6]; ASLN mouse renal tissue, PAM stain, FIG. 4G): obviously inhibits | fibrinoid necrosis ([6]; ASLN mouse renal tissue, PAM stain, FIG. 4H): obviously inhibits | renal interstitial inflammation ([6]; ASLN mouse renal tissue, PAM stain, FIG. 4I): obviously inhibits | glomerulonephritis ([6]; ASLN mouse renal tissue, PAM stain, FIG. 4J): obviously inhibits | anti-dsDNA autoantibody ([6]; ASLN mouse, FIG. 4O): inhibits | proliferation of T cells [7]: inhibit | NF-κB activation [8]: will not affect; also recorded: fails to inhibit | expression level of superoxide anion, kidney ([9]; FIG. 6A): lower | expression level of superoxide anion, serum ([9]; FIG. 6B): lower | expression level of superoxide anion, urine ([9]; FIG. 6C): lower | LC3BI/II expression level ([10]; FIG. 2C, 2E): promotes | p62 expression level ([10]; FIG. 2C, 2F): promotes | Atg5 expression level ([10]; FIG. 2C-2D): promotes | BUN ([11]; favorable inhibitory effect in Week 3, FIG. 4A): inhibits | creatinine ([11]; favorable inhibitory effect in Week 3, FIG. 4B): inhibits | urine ACR ([11]; favorable inhibitory effect in Week 3, FIG. 4C): inhibits | NLRP3 ([12]; FIG. 5B): inhibitory effect | IL-1β ([12]; FIG. 5C): inhibitory effect | Atg5 ([12]; FIG. 5G): inhibitory effect | LC3B I/II ([12]; FIG. 5H): inhibitory effect | content of p47NADPH ([12]; FIG. 5J): can inhibit | manifestation of NQO1 ([12]; FIG. 5K): can promote | activity of GPx ([12]; FIG. 5L): can enhance
